Reference: patent publication US6737383B1, “Herbicidal oxadiazolidines” (priority 1999, dated 2004)

Key:
sugar beet = test: Test B pre/postemergence sugar beet; assay type: in vivo, Beta vulgaris
In short: (§1)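 Test chemicals in a non-phytotoxic solvent mixture with surfactant were sprayed preemergence onto planted seeds and postemergence onto plants 2 to 18 cm tall (1- to 4-leaf stage). After twelve to sixteen days in a greenhouse, injury was visually rated against untreated controls from 0 (no effect) to 10 (complete control).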

blackgrass = test: Test B pre/postemergence blackgrass; assay type: in vivo, Alopecurus myosuroides
In short: as §1

bamyardgrass = test: Test B flood test barnyardgrass; assay type: in vivo, Echinochloa crus-galli; settings: Pre-emergence
In short: (§2)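 Plants were grown to the 2-leaf stage before treatment with test chemical, then held in a greenhouse for twelve to sixteen days. Injury was visually rated against untreated controls on a 0–10 scale, where 0 is no effect and 10 is complete control.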

wild oat = test: Test B pre/postemergence wild oat; assay type: in vivo, Avena fatua
In short: as §1

morningglory = test: Test B pre/postemergence morningglory; assay type: in vivo, Ipomoea hederacea
In short: as §1

wheat = test: Test B pre/postemergence wheat; assay type: in vivo, Triticum aestivum
In short: as §1

cocklebur = test: Test B pre/postemergence cocklebur; assay type: in vivo, Xanthium strumarium
In short: as §1

rape = test: Test B pre/postemergence rape; assay type: in vivo, Brassica napus
In short: as §1

smallflower flatsedge = test: Test B flood test smallflower flatsedge; assay type: in vivo, Cyperus difformis; settings: Pre-emergence
In short: as §2

duck salad = test: Test B flood test duck salad; assay type: in vivo, Heteranthera limosa; settings: Pre-emergence
In short: as §2

surinam grass = test: Test B pre/postemergence surinam grass; assay type: in vivo, Brachiaria decumbens
In short: as §1

soybean = test: Test B pre/postemergence soybean; assay type: in vivo, Glycine max
In short: as §1

rice = test: Test B flood test rice; assay type: in vivo, Oryza sativa; settings: Pre-emergence
In short: as §2

velvetleaf = test: Test B pre/postemergence velvetleaf; assay type: in vivo, Abutilon theophrasti
In short: as §1

pigweed = test: Test B pre/postemergence pigweed; assay type: in vivo, Amaranthus retroflexus
In short: as §1

giant foxtail = test: Test B pre/postemergence giant foxtail; assay type: in vivo, Setaria faberii
In short: as §1

crabgrass = test: Test B pre/postemergence crabgrass; assay type: in vivo, Digitaria sanguinalis
In short: as §1

purple nutsedge = test: Test B pre/postemergence purple nutsedge; assay type: in vivo, Cyperus rotundus
In short: as §1

bedstraw = test: Test B pre/postemergence bedstraw; assay type: in vivo, Galium aparine; settings: Postemergence, Rate 250 g/ha; scale 0 to 10, 0 is no effect, 10 is complete control
In short: as §1

corn = test: Test B pre/postemergence corn; assay type: in vivo, Zea mays
In short: as §1

[1] = Postemergence, Rate 250 g/ha, scale 0 to 10, 0 is no effect, 10 is complete control
[2] = Postemergence, Rate 500 g/ha, scale of 0 to 10 where 0 is no effect and 10 is complete control
[3] = Preemergence, Rate 62 g/ha, scale 0 to 10 (0 no effect, 10 complete control)
[4] = Preemergence, Rate 125 g/ha, scale of 0 to 10 where 0 is no effect and 10 is complete control
[5] = Preemergence, Rate 250 g/ha, scale 0 to 10, 0 is no effect, 10 is complete control
[6] = Preemergence, Rate 500 g/ha, scale of 0 to 10 where 0 is no effect and 10 is complete control
[7] = Rate 62 g/ha, Postemergence, scale of 0 to 10 where 0 is no effect and 10 is complete control
[8] = Preemergence, Rate 250 g/ha, scale of 0 to 10 where 0 is no effect and 10 is complete control
[9] = Rate 62 g/ha, flood test species, visual evaluation after twelve to sixteen days
[10] = Rate 250 g/ha, flood-test species, scale 0 to 10, 0 is no effect, 10 is complete control
[11] = Rate 500 g/ha, flood test species, scale 0 to 10 (0 no effect, 10 complete control)
[12] = Postemergence, Rate 125 g/ha, scale 0 to 10, 0 is no effect, 10 is complete control

Compound: CC(C)Cn1c(=O)on(C(=O)N(c2ccc(F)cc2F)C(C)C)c1=O [Compound 394]
- Plant response rating, Sugarbeets (sugar beet; [1]): 1
- Sugarbeets plant response rating (sugar beet; [2]): 5
- Plant response rating, Sugarbeets (sugar beet; [3]): 0
- Plant response rating, Sugarbeets (sugar beet; [4]): 3
- Sugarbeets plant response rating (sugar beet; [5]): 4
- Sugarbeets plant response rating (sugar beet; [6]): 7
- Sugarbeets plant response rating (sugar beet; [7]): 0
- Plant response rating, Blackgrass (blackgrass; [1]): 9
- Plant response rating, Blackgrass (blackgrass; [3]): 7
- Plant response rating, Blackgrass (blackgrass; [4]): 8
- Blackgrass plant response rating (blackgrass; [8]): 10
- Blackgrass plant response rating (blackgrass; [6]): 10
- Blackgrass plant response rating (blackgrass; [7]): 2
- Plant response rating, Barnyardgrass (0 to 10 scale, 0 is no effect, 10 is complete control) (bamyardgrass; [9]): 0
- Barnyardgrass plant response rating (bamyardgrass; [10]): 6
- Barnyardgrass plant response rating (bamyardgrass; [11]): 8
- Wild oats plant response rating (wild oat; [2]): 6
- Plant response rating, Wild oats (wild oat; [3]): 4
- Plant response rating, Wild oats (wild oat; [4]): 6
- Wild oats plant response rating (wild oat; [5]): 10
- Wild oats plant response rating (wild oat; [6]): 10
- Wild oats plant response rating (wild oat; [7]): 0
- Plant response rating, Morningglory (morningglory; [1]): 6
- Morningglory plant response rating (morningglory; [2]): 7
- Plant response rating, Morningglory (morningglory; [3]): 0
- Plant response rating, Morningglory (morningglory; [4]): 0
- Morningglory plant response rating (morningglory; [5]): 0
- Morningglory plant response rating (morningglory; [6]): 2
- Morningglory plant response rating (morningglory; [7]): 0
- Wheat plant response rating (wheat; [2]): 4
- Plant response rating, Wheat (wheat; [3]): 0
- Plant response rating, Wheat (wheat; [4]): 1
- Wheat plant response rating (wheat; [5]): 6
- Wheat plant response rating (wheat; [6]): 9
- Wheat plant response rating (wheat; [7]): 0
- Plant response rating, Cocklebur (cocklebur; [12]): 0
- Plant response rating, Cocklebur (cocklebur; [1]): 0
- Cocklebur plant response rating (cocklebur; [2]): 4
- Plant response rating, Cocklebur (cocklebur; [3]): 0
- Plant response rating, Cocklebur (cocklebur; [4]): 0
- Cocklebur plant response rating (cocklebur; [5]): 0
- Cocklebur plant response rating (cocklebur; [6]): 0
- Cocklebur plant response rating (cocklebur; [7]): 0
- Plant response rating, Rape (rape; [1]): 0
- Plant response rating, Rape (rape; [3]): 0
- Plant response rating, Rape (rape; [4]): 2
- Rape plant response rating (rape; [5]): 7
- Rape plant response rating (rape; [6]): 9
- Rape plant response rating (rape; [7]): 0
- Plant response rating, S. Flatsedge (0 to 10 scale, 0 is no effect, 10 is complete control) (smallflower flatsedge; [9]): 4
- S. Flatsedge plant response rating (smallflower flatsedge; [10]): 8
- S. Flatsedge plant response rating (smallflower flatsedge; [11]): 8
- Plant response rating, Ducksalad (0 to 10 scale, 0 is no effect, 10 is complete control) (duck salad; [9]): 0
- Ducksalad plant response rating (duck salad; [10]): 3
- Ducksalad plant response rating (duck salad; [11]): 3
- Plant response rating, B. signalgrass (surinam grass; [12]): 1
- Plant response rating, B. signalgrass (surinam grass; [1]): 2
- B. signalgrass plant response rating (surinam grass; [2]): 9
- Plant response rating, B. signalgrass (surinam grass; [3]): 2
- Plant response rating, B. signalgrass (surinam grass; [4]): 5
- B. signalgrass plant response rating (surinam grass; [8]): 8
- B. signalgrass plant response rating (surinam grass; [6]): 10
- B. signalgrass plant response rating (surinam grass; [7]): 0
- Plant response rating, Soybean (soybean; [1]): 5
- Soybean plant response rating (soybean; [2]): 5
- Plant response rating, Soybean (soybean; [3]): 0
- Soybean plant response rating (soybean; [5]): 1
- Soybean plant response rating (soybean; [6]): 2
- Soybean plant response rating (soybean; [7]): 3
- Plant response rating, Rice (0 to 10 scale, 0 is no effect, 10 is complete control) (rice; [9]): 1
- Rice plant response rating (rice; [10]): 1
- Rice plant response rating (rice; [11]): 1
- Plant response rating, Velvetleaf (velvetleaf; [1]): 0
- Velvetleaf plant response rating (velvetleaf; [2]): 3
- Plant response rating, Velvetleaf (velvetleaf; [3]): 1
- Plant response rating, Velvetleaf (velvetleaf; [4]): 5
- Velvetleaf plant response rating (velvetleaf; [5]): 7
- Velvetleaf plant response rating (velvetleaf; [6]): 7
- Velvetleaf plant response rating (velvetleaf; [7]): 0
- Plant response rating, Redroot pigweed (pigweed; [1]): 2
- Redroot pigweed plant response rating (pigweed; [2]): 7
- Plant response rating, Redroot pigweed (pigweed; [3]): 1
- Plant response rating, Redroot pigweed (pigweed; [4]): 2
- Redroot pigweed plant response rating (pigweed; [5]): Redroot pigwee 6
- Redroot pigweed plant response rating (pigweed; [6]): 10
- Redroot pigweed plant response rating (pigweed; [7]): 0
- Plant response rating, Giant foxtail (giant foxtail; [12]): 7
- Plant response rating, Giant foxtail (giant foxtail; [1]): 8
- Giant foxtail plant response rating (giant foxtail; [2]): 9
- Plant response rating, Giant foxtail (giant foxtail; [3]): 9
- Plant response rating, Giant foxtail (giant foxtail; [4]): 10
- Giant foxtail plant response rating (giant foxtail; [5]): 10
- Giant foxtail plant response rating (giant foxtail; [6]): 10
- Plant response rating, Crabgrass (crabgrass; [12]): 2
- Plant response rating, Crabgrass (crabgrass; [1]): 8
- Crabgrass plant response rating (crabgrass; [2]): 9
- Plant response rating, Crabgrass (crabgrass; [3]): 9
- Plant response rating, Crabgrass (crabgrass; [4]): 10
- Crabgrass plant response rating (crabgrass; [5]): 10
- Crabgrass plant response rating (crabgrass; [6]): 10
- Crabgrass plant response rating (crabgrass; [7]): 2
- Plant response rating, Nutsedge (purple nutsedge; [1]): 0
- Plant response rating, Nutsedge (purple nutsedge; [3]): 0
- Plant response rating, Nutsedge (purple nutsedge; [4]): 0
- Nutsedge plant response rating (purple nutsedge; [5]): 2
- Nutsedge plant response rating (purple nutsedge; [6]): 6
- Nutsedge plant response rating (purple nutsedge; [7]): 0
- Plant response rating, Bedstraw (bedstraw): 5
- Plant response rating, Corn (corn; [12]): 0
- Plant response rating, Corn (corn; [1]): 0
- Corn plant response rating (corn; [2]): 0
- Plant response rating, Corn (corn; [3]): 0
- Plant response rating, Corn (corn; [4]): 0
- Corn plant response rating (corn; [5]): 3
- Corn plant response rating (corn; [6]): 5
- Corn plant response rating (corn; [7]): 0
